For 34 molecules, CC50, EC50 and IC50 results are on record in patent publication US10683321B2, “4′-or nucleosides for the treatment of HCV” (IDENIX PHARMACEUTICALS LLC, priority 2013, dated 2020).

One may read the CC50 as the concentration giving 50% cytotoxicity. High values mean better tolerance by the cells, low ones harm at low concentration. One may read the EC50 as the concentration that produces a half-maximal response. In general, IC50 refers to the concentration needed to halve the response being measured.

The nature of data set [1]: Cytotoxicity evaluation, CellTiter-Blue Cell Viability Assay. In kind it is cell-based. The note with it: human, Zluc cells (HCV replicon). As for the experimental part: For cytotoxicity evaluation, Zluc cells were treated with compound as described herein, and cell viability was monitored using the CellTiter-Blue Cell Viability Assay (Promega) by adding 20 μL of the assay solution to each well. The plates were then incubated at 37° C./5% CO2 for at least 3 hours. Fluorescence was detected in plates using excitation and emission wavelengths of 560 and 590 nm, respectively, in a Victor^3 V 1420 multilabel counter (Perkin Elmer) and CC50 values were determined using Microsoft Excel and XLfit 4.1 software.
(In general: The colour change of resazurin is a common sign of viable cells or microbes.)

Data set [2] relates to HCV genotype 1b replicon in Huh-7-derived cell line (Zluc). Nature of the data set: HCV Replicon Assay (luciferase reporter). In kind it is cell-based. The conditions noted are these: Hepatitis C virus; Zluc cells, 72 hours of incubation, luciferase readout. As for the experimental part: Huh-7-derived cell line (Zluc) that harbors an HCV genotype 1b replicon and a luciferase reporter gene was grown in Dulbecco's Modified Eagle Medium (DMEM) supplemented with 10% fetal bovine serum, 2 mM GlutaMAX, 1% MEM nonessential amino acids, 100 IU/mL penicillin, 100 μg/mL streptomycin, and 0.5 mg/mL Geneticin® (G418). For dose response testing the cells were seeded in 96-well plates at 7.5×10^3 cells per well in a volume of 50 μL, and incubated at 37° C./5% CO2. Drug solutions were made up freshly in Huh-7 media as 2× stocks. Ten additional 5-fold dilutions were prepared from these stocks in DMEM without G418. At least three hours after Zluc cells were seeded, drug treatment was initiated by adding 50 μL of drug dilutions to the plates in duplicate. Final concentrations of drug ranged from 100 μM to 0.0000512 μM. Cells were then incubated at 37° C./5% CO2. Alternatively, compounds were tested at two concentrations (1 μM and 10 μM). […] After 72 hours of incubation, the inhibition of HCV replication was measured by quantification of photons emitted after mono-oxygenation of 5′-fluoroluciferin to oxyfluoroluciferin by firefly luciferase. For this, media was removed from the plates via gentle tapping. Fifty microliters of ONE-glo luciferase assay reagent was added to each well. The plates were shaken gently for 3 min at room temperature and luminescence was measured on a Victor^3 V 1420 multilabel counter (Perkin Elmer) with a 1 second read time using a 700 nm cut-off filter. The EC50 values were calculated from dose response curves from the resulting best-fit equations determined by Microsoft Excel and XLfit 4.1 software. When screening at two fixed concentrations, the results were expressed as % inhibition at 1 μM and 10 μM.
A general note: A replicon is a self-replicating genome or part of one, used to study replication in cells.

Data set [3] concerns the target T1, wild-type HCV genotype 1b NS5B protein (recombinant HCV polymerase) (Hepatitis C virus genotype 1b, UniProt Q9WMX2).
T1 construct: HCV genotype 1b NS5B protein were used to generate recombinant HCV polymerases (with a deletion of the 21 carboxy terminal amino acids); made in house
Kind of data set: HCV Polymerase Enzyme Assay, wild-type. Format: biochemical. An excerpt: (§1) Test compounds in the form of nucleoside triphosphates were examined for inhibitory activity against purified HCV polymerase in a standard assay. Bacterial expression constructs encoding the approximately 65 kDa HCV genotype 1b NS5B protein were used to generate recombinant HCV polymerases (with a deletion of the 21 carboxy terminal amino acids). Both the wild-type genotype 1b protein and protein containing the S282T mutation were expressed and purified for use in the enzymatic activity assay.
(§2) The enzymatic activity assay measured the inhibitory effect of increasing concentrations of test compound on the incorporation of α-[^33P]-labeled nucleotide into trichloroacetic acid-precipitable material. Recombinant polymerase and synthetic RNA template were combined in reaction buffer containing ribonucleoside triphosphates, α-[^33P]-labeled nucleotide and eight concentrations of test compound in three-fold dilutions. Reactions were incubated for two hours at 30° C.
(§3) Reactions were terminated by the addition of ice-cold trichloroacetic acid and sodium pyrophosphate to promote precipitation of newly-synthesized ribonucleic acid. Precipitable material from the reactions was collected by filtration onto 96-well filter plates, washed extensively with water, and quantified by liquid scintillation.
(§4) The inhibitory activity of test compounds was determined by fitting results to dose-response curves using XLfit software.

Data set [4] concerns the target T2, HCV genotype 1b NS5B protein containing the S282T mutation (Hepatitis C virus genotype 1b, UniProt Q9WMX2, S2701T).
T2 construct: HCV genotype 1b NS5B protein were used to generate recombinant HCV polymerases (with a deletion of the 21 carboxy terminal amino acids); made in house
Nature of the data set: HCV Polymerase Enzyme Assay, S282T mutant. In kind it is biochemical.
Excerpt: as §1, §2, §3, §4

A value given as a limit tells only on which side of the number the result lay.

`CO[C@]1(CO)O[C@@H](n2ccc(=O)[nH]c2=O)[C@H](F)[C@@H]1O` [Compound 2b] gave a CC50 at 72 h in data set [1] of more than 50 µM. In addition, the EC50 in data set [2] is more than 10 µM.
For `CO[C@]1(CO)O[C@@H](n2cnc3c(=O)[nH]c(N)nc32)[C@@H](N=[N+]=[N-])[C@@H]1O` [Compound 20], in that order: more than 50 µM and more than 10 µM.
`CO[C@]1(CO)O[C@@H](n2cnc3c(=O)[nH]c(N)nc32)[C@H](N=[N+]=[N-])[C@@H]1O` [Compound 21] displayed a CC50 at 72 h in data set [1] of more than 50 µM. Besides, the half-maximal effective concentration (EC50) in data set [2] was more than 10 µM.
Consider `CO[C@]1(COP(=O)(O)OP(=O)(O)OP(=O)(O)O)O[C@@H](n2ccc(=O)[nH]c2=O)[C@H](O)[C@@H]1F` [Compound 9c], for which the IC50 in data set [3] is 0.25 to 1 µM.
As to `CO[C@]1(CO)O[C@@H](n2ccc(=O)[nH]c2=O)[C@H](O)[C@@H]1F` [Compound 2c], the CC50 at 72 h in data set [1] is more than 50 µM. In addition, the EC50 in data set [2] was more than 10 µM.
Take `C#CCO[C@]1(CO)O[C@@H](n2ccc(=O)[nH]c2=O)[C@H](O)[C@@H]1O` [Compound 8a]: the CC50 at 72 h in data set [1] is more than 50 µM. For the same molecule, in data set [2], the EC50 is more than 10 µM.
In the case of `CO[C@]1(COP(=O)(O)OP(=O)(O)OP(=O)(O)O)O[C@@H](n2ccc(N)nc2=O)[C@H](O)[C@@H]1O` [Compound 9f], the IC50 is 0.25 to 1 µM in data set [4] and less than 0.25 µM in data set [3].
As to `CO[C@H]1[C@H](n2ccc(=O)[nH]c2=O)O[C@@](COP(=O)(O)OP(=O)(O)OP(=O)(O)O)(OC)[C@H]1O` [Compound 224], the IC50 in data set [3] was more than 10 µM.
Consider `CO[C@]1(COP(=O)(N[C@H](C)C(=O)OC(C)C)Oc2ccccc2)O[C@@H](n2ccc(N)nc2=O)[C@H](O)[C@@H]1O` (stereo partly drawn) [Compound 13a], for which the CC50 at 72 h in data set [1] was more than 50 µM. For the same molecule, the EC50 in data set [2] is more than 10 µM.
In the case of `CO[C@]1(COP(=O)(O)OP(=O)(O)OP(=O)(O)O)O[C@@H](n2ccc(=O)[nH]c2=O)[C@H](N=[N+]=[N-])[C@@H]1O` [Compound 223], the IC50 in data set [3] was more than 10 µM.
`CO[C@H]1[C@H](n2ccc(=O)[nH]c2=O)O[C@@](CO)(OC)[C@H]1O` [Compound 24] had a half-maximal cytotoxic concentration (CC50) at 72 h in data set [1] of more than 50 µM. Further, the concentration giving a half-maximal response (EC50) in data set [2] was more than 10 µM.
For the molecule `CO[C@]1(CO)O[C@@H](n2ccc(=O)[nH]c2=O)[C@H](O)[C@@H]1O` [Compound 2a], in data set [1], the CC50 at 72 h is more than 50 µM. The concentration giving a half-maximal response (EC50) in data set [2] was more than 10 µM.
Molecule `CO[C@]1(CO)O[C@@H](n2ccc(=O)[nH]c2=O)[C@H](O)[C@@H]1N=[N+]=[N-]` [Compound 2e] yielded a CC50 at 72 h in data set [1] of more than 50 µM. Further, the EC50 in data set [2] was more than 10 µM.
In turn, `CO[C@]1(COP(=O)(N[C@@H](C)C(=O)OC(C)C)OCCSC(=O)C(C)(C)C)O[C@@H](n2ccc(N)nc2=O)[C@H](O)[C@@H]1O` (single isomer, unassigned) [Compound 16a] yielded a CC50 at 72 h in data set [1] of more than 50 µM. Moreover, the EC50 in data set [2] was more than 10 µM.
On to `CO[C@]1(COP(=O)(O)OP(=O)(O)OP(=O)(O)O)O[C@@H](n2ccc(=O)[nH]c2=O)[C@H](O)[C@@H]1N` [Compound 9e], for which, in data set [3], the 50% inhibitory concentration (IC50) is more than 10 µM.
As to `CO[C@]1(COP(=O)(O)OP(=O)(O)OP(=O)(O)O)O[C@@H](n2cnc3c(=O)[nH]c(N)nc32)[C@@H](N)[C@@H]1O` [Compound 230], the IC50 in data set [3] lay in the range of 1 to 10 µM.
As to `CO[C@]1(COP(=O)(O)OP(=O)(O)OP(=O)(O)O)O[C@@H](n2cnc3c(=O)[nH]c(N)nc32)[C@@H](N=[N+]=[N-])[C@@H]1O` [Compound 220], in data set [3], the IC50 lay within 1 to 10 µM.
Still for that read-out and setting: with `CO[C@@]1(COP(=O)(O)OP(=O)(O)OP(=O)(O)O)C[C@@H](O)[C@H](n2ccc(=O)[nH]c2=O)O1` [Compound 9d] the figure was 1 to 10 µM.
In turn, `CC(C)O[C@]1(CO)O[C@@H](n2ccc(=O)[nH]c2=O)[C@H](O)[C@@H]1O` [Compound 7a] returned a CC50 at 72 h in data set [1] of more than 50 µM. In data set [2], the EC50 was more than 10 µM.
On to `CC(C)O[C@]1(CO)O[C@@H](n2ccc(=O)[nH]c2=O)[C@H](F)[C@@H]1O` [Compound 7b], for which the CC50 at 72 h in data set [1] was more than 50 µM. Also, in data set [2], the EC50 is more than 10 µM.
Regarding `CO[C@]1(COP(=O)(O)OP(=O)(O)OP(=O)(O)O)O[C@@H](n2ccc(=O)[nH]c2=O)[C@H](N)[C@@H]1O` [Compound 233], the IC50 in data set [3] was in the range of 1 to 10 µM.
`CO[C@]1(COP(=O)(O)OP(=O)(O)OP(=O)(O)O)O[C@@H](n2ccc(=O)[nH]c2=O)[C@H](F)[C@@H]1O` [Compound 9b]: the IC50 in data set [3] was in the range of 1 to 10 µM.
`CO[C@]1(CO)O[C@@H](n2ccc(N)nc2=O)[C@H](O)[C@@H]1F` [Compound 5c] registered a CC50 at 72 h in data set [1] of more than 50 µM. For the same molecule, the EC50 in data set [2] is more than 10 µM.
`CO[C@]1(COP(=O)(N[C@@H](C)C(=O)OC(C)C)OCCSC(=O)C(C)(C)C)O[C@@H](n2ccc(=O)[nH]c2=O)[C@H](O)[C@@H]1O` (stereo partly drawn) [Compound 14a] had a half-maximal cytotoxic concentration (CC50) at 72 h in data set [1] of more than 50 µM. In data set [2], the EC50 is more than 10 µM.
For `CO[C@]1(COP(=O)(O)OP(=O)(O)OP(=O)(O)O)O[C@@H](n2cnc3c(=O)[nH]c(N)nc32)[C@H](F)[C@@H]1O` [Compound 222], the IC50 was 0.25 to 1 µM in data set [4] and less than 0.25 µM in data set [3].
Take `CO[C@]1(COP(=O)(O)OP(=O)(O)OP(=O)(O)O)O[C@@H](n2ccc(N)nc2=O)[C@H](O)[C@@H]1F` [Compound 9g]: the half-inhibitory concentration (IC50) in data set [4] and in data set [3] was 0.25 to 1 µM in each case.
For the molecule `CO[C@]1(COP(=O)(O)OP(=O)(O)O)O[C@@H](n2ccc(=O)[nH]c2=O)[C@H](O)[C@@H]1O` [Compound 17a], in data set [3], the IC50 is more than 10 µM.
In turn, `CO[C@]1(COP(=O)(N[C@H](C)C(=O)OC(C)C)Oc2ccccc2)O[C@@H](n2ccc(=O)[nH]c2=O)[C@H](N=[N+]=[N-])[C@@H]1O` (stereo partly drawn) [Compound 123] gave a 50% cytotoxic concentration (CC50) at 72 h in data set [1] of more than 50 µM. Besides, the EC50 in data set [2] is more than 10 µM.
Molecule `CCO[C@]1(CO)O[C@@H](n2ccc(=O)[nH]c2=O)[C@H](O)[C@@H]1O` [Compound 6a] had a CC50 at 72 h in data set [1] of more than 50 µM. Moreover, the EC50 in data set [2] was more than 10 µM.
Turning to `CO[C@]1(COP(=O)(O)OP(=O)(O)OP(=O)(O)O)O[C@@H](n2ccc(=O)[nH]c2=O)[C@H](O)[C@@H]1O` [Compound 9a], the half-inhibitory concentration (IC50) in data set [4] and in data set [3] was 0.25 to 1 µM throughout.
Consider `CO[C@@]1(CO)C[C@@H](O)[C@H](n2ccc(=O)[nH]c2=O)O1` [Compound 2d], for which the CC50 at 72 h in data set [1] is more than 50 µM. Also, in data set [2], the EC50 was more than 10 µM.
Turning to `CO[C@]1(CO)O[C@@H](n2ccc(=O)[nH]c2=O)[C@H](N=[N+]=[N-])[C@@H]1O` [Compound 23], the CC50 at 72 h in data set [1] was more than 50 µM. For the same molecule, in data set [2], the EC50 was more than 10 µM.
Consider `CO[C@]1(CO)O[C@@H](n2ccc(N)nc2=O)[C@H](O)[C@@H]1O` [Compound 5a2], for which the CC50 at 72 h in data set [1] was more than 50 µM. Further, in data set [2], the EC50 is more than 10 µM.
Consider `CO[C@]1(COP(=O)(O)O)O[C@@H](n2ccc(=O)[nH]c2=O)[C@H](O)[C@@H]1O` [Compound 18a], for which the IC50 in data set [3] is more than 10 µM.
